Laboratory results as given in US10519106B2, “Urea derivative and use therefor” (Toray Industries, Inc., priority 2015, dated 2019).
Where a name gives a salt, the structure may show the parent alone.

Target: T1, intracellular domain of DDR1 (Homo sapiens, UniProt Q08345)
T1 construct: the intracellular domain of DDR1 (in a final concentration of 5 ng/μL) (Carna Biosciences, Inc.); purchased Carna Biosciences, Inc
Test: Evaluation of DDR1 inhibition activity with HTRF KinEASE-TK kit
Type: biochemical
Conditions: intracellular domain of DDR1 5 ng/μL, ATP 25 mol/L (so in the source), TK Substrate-biotin 1000 nmol/L, room temperature, one hour
Procedure: The DDR1 inhibition activity of the compounds of Examples 1 to 51 was evaluated with HTRF® KinEASE-TK kit (Cisbio Bioassays).
Each test substance was dissolved in dimethyl sulfoxide (hereinafter referred to as DMSO) and then used for the evaluation as described below. Moreover, each of test substances and reagents was diluted in the kinase buffer (Cisbio Bioassays) prepared by adding thereto MgCl2, MnCl2, DTT, and the Supplemental Enzyme buffer (Cisbio Bioassays) to concentrations of 5 mmol/L, 0.5 mmol/L, 0.25 mmol/L, and 50 nmol/L, respectively, and then used. Each test substance (in DMSO in a final concentration of 1%), the intracellular domain of DDR1 (in a final concentration of 5 ng/μL) (Carna Biosciences, Inc.), the phosphate donor ATP (in final concentration of 25 mol/L) (Sigma), and the substrate TK Substrate-biotin (in a final concentration of 1000 nmol/L) (Cisbio Bioassays) were added to a 384-well black plate (Corning) and allowed to react at room temperature for one hour. After completion of the reaction, the TK Antibody-Cryptate (Cisbio Bioassays) and the Streptavidin-XL665 (Cisbio Bioassays) were added thereto and allowed to react at room temperature for one hour. In addition, the plate was provided with a well to which a test substance was not added, and with a well to which the intracellular domain of DDR1 and a test substance were not added.
The fluorescence intensity in each well was measured using a multi-label counter (Envision, PerkinElmer; excitation wavelength: 320 nm, measurement wavelength: 665 nm and 620 nm) to calculate a Ratio (the fluorescence intensity at 665 nm/the fluorescence intensity at 620 nm). The inhibition rate (%) of a test substance at each concentration was calculated based on the formula below. Inhibition rate (%)=([the Ratio obtained from the well containing no test substance]−[the Ratio from a well containing a test substance])/([the Ratio obtained from the well containing no test substance]−[the Ratio obtained from the well containing no intracellular domain of DDR1 and no test substance])×100
The calculated inhibition rates were fitted to a sigmoidal dose-response curve by regression analysis using the Prism 5.04 (GraphPad Software, Inc.) to calculate the ICso0 value of the test substance.

T1 sequence (Q08345 444-876 isoform Q08345-2 limits assumed): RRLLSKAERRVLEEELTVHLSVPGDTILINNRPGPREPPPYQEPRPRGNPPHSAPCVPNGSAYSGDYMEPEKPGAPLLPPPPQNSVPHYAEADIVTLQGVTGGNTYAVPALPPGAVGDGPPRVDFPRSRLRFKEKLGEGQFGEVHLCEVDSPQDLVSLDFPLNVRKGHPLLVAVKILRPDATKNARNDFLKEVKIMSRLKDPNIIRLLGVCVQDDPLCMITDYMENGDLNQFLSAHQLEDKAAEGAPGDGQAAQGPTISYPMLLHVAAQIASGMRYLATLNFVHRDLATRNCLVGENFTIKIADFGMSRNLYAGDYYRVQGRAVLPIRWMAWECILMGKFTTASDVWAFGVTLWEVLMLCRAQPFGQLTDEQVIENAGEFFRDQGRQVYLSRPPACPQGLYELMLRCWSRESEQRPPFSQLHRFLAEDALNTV

With COC(=O)c1ccc(Oc2ccccc2CNC(=O)Nc2cc(OC(F)(F)F)ccc2OC)cc1 [Compound of Example 25] as the compound, how does the IC50 read?
Its IC50 is 194 nM.

CN1CCN(Cc2cc(NC(=O)NCc3ccccc3Oc3ccc(C(N)=O)cc3)cc(C(F)(F)F)c2)CC1 [Compound of Example 37, 4-(2-((3-(3-((4-methylpiperazin-1-yl)methyl)-5-(trifluoromethyl)phenyl)ureido)methyl)phenoxy)benzamide] was tested. Which IC50 did it give?
Its IC50 is 11.7 nM.

COc1c(CO)cc(C(F)(F)F)cc1NC(=O)NCc1ccccc1Oc1ccc(C(=O)O)cc1 [Compound of Example 28] was tested. Which IC50 did it give?
Its IC50 is 14.5 nM.

CNCCNC(=O)c1ccc(COc2ccccc2CNC(=O)Nc2cc(OC(F)(F)F)ccc2OC)cc1 [Compound of Example 17, 4-((2-((3-(2-methoxy-5-(trifluoromethoxy)phenyl)ureido)methyl)phenoxy)methyl)-N-(2-(methylamino)ethyl)benzamide] was tested. Which IC50 did it give?
The IC50 was 185 nM.

Which IC50 does the source give for COc1ccc(C(F)(F)F)cc1NC(=O)NCc1ccccc1OCc1cccc(C(N)=O)c1 [Compound of Example 21, 3-((2-((3-(2-methoxy-5-(trifluoromethyl)phenyl)ureido)methyl)phenoxy)methyl)benzamide] here?
Its IC50 is 67.4 nM.

For COc1ccc(OC(F)(F)F)cc1NC(=O)NCc1ccccc1OCc1ccc(C(=O)N(C)C)cc1 [Compound of Example 14, 4-((2-((3-(2-methoxy-5-(trifluoromethoxy)phenyl)ureido)methyl)phenoxy)methyl)-N,N-dimethylbenzamide], which IC50 is on record?
The IC50 was 156 nM.

COc1ccc(OC(F)(F)F)cc1NC(=O)NCc1ccccc1Oc1ccc(C(=O)O)cc1 [Compound of Example 26] was tested. Which IC50 did it give?
Its IC50 is 38.3 nM.

With NC(=O)c1ccc(Oc2ccccc2CNC(=O)Nc2cc(CN3CCNCC3)cc(C(F)(F)F)c2)cc1 [Compound of Example 39, 4-(2-((3-(3-((piperazin-1-ylmethyl)-5-(trifluoromethyl)phenyl)ureido)methyl)phenoxy)benzamide hydrochloride] as the compound, how does the IC50 read?
Its IC50 is 4.2 nM.

How did the IC50 turn out when NC(=O)c1ccc(Oc2ccccc2CNC(=O)Nc2cc(C(F)(F)F)ccc2OC2COC2)cc1 [Compound of Example 33, 4-(2-((3-(2-(oxetan-3-yloxy)-5-(trifluoromethyl)phenyl)ureido)methyl)phenoxy)benzamide] was run?
The IC50 was 12.9 nM.

Which IC50 does the source give for COc1c(CO)cc(C(F)(F)F)cc1NC(=O)NCc1ccccc1Oc1ccc(C(N)=O)cc1 [Compound of Example 29] here?
Its IC50 is 5.98 nM.

How did the IC50 turn out when COc1ccc(C(F)(F)F)cc1NC(=O)NCc1ccccc1Oc1ccc(C(N)=O)cc1 [Compound of Example 31] was run?
Its IC50 is 11 nM.

How did the IC50 turn out when COc1ccc(C(F)(F)F)cc1NC(=O)NCc1ccccc1OCc1ccc(C(N)=O)cc1 [Compound of Example 18, 4-((2-((3-(2-methoxy-5-(trifluoromethyl)phenyl)ureido)methyl)phenoxy)methyl)benzamide] was run?
Its IC50 is 23.3 nM.

NC(=O)c1ccc(Oc2ccccc2CNC(=O)Nc2cccc(C(F)(F)F)c2)nc1 [Compound of Example 47, 6-(2-((3-(3-(trifluoromethyl)phenyl)ureido)methyl)phenoxy)nicotinamide] was tested. Which IC50 did it give?
The IC50 was 23.4 nM.

With COc1c(CO)cc(C(F)(F)F)cc1NC(=O)NCc1ccccc1OCc1ccc(C(=O)O)cc1 [Compound of Example 11, 4-((2-((3-(3-(hydroxymethyl)-2-methoxy-5-(trifluoromethyl)phenyl)ureido)methyl)phenoxy)methyl)benzoic acid] as the compound, how does the IC50 read?
Its IC50 is 150 nM.

COc1ccc(OC(F)(F)F)cc1NC(=O)NCc1ccccc1OCc1ccc(C(N)=O)cc1 [Compound of Example 12, 4-((2-((3-(2-methoxy-5-(trifluoromethoxy)phenyl)ureido)methyl)phenoxy)methyl)benzamide] was tested. Which IC50 did it give?
The IC50 was 38.6 nM.

For COc1ccc(Cl)cc1NC(=O)NCc1ccccc1Oc1ccc(C(N)=O)cc1 [Compound of Example 50], which IC50 is on record?
The IC50 was 12.3 nM.

Which IC50 does the source give for COc1ccc(C(F)(F)F)cc1NC(=O)NCc1ccccc1Oc1ccc(C(=O)O)cc1 [Compound of Example 30] here?
Its IC50 is 12.4 nM.

Which IC50 does the source give for COc1ccc(OC(F)(F)F)cc1NC(=O)NCc1ccccc1OCc1cccc(C(=O)O)c1 [Compound of Example 9, 3-((2-((3-(2-methoxy-5-(trifluoromethoxy)phenyl)ureido)methyl)phenoxy)methyl)benzoic acid] here?
Its IC50 is 137 nM.

How did the IC50 turn out when COc1c(CO)cc(S(F)(F)(F)(F)F)cc1NC(=O)NCc1ccccc1OCc1ccncc1 [Compound of Example 2] was run?
The IC50 was 26.1 nM.

With CCOc1ccc(C(F)(F)F)cc1NC(=O)NCc1ccccc1Oc1ccc(C(N)=O)cc1 [Compound of Example 46] as the compound, how does the IC50 read?
The IC50 was 22.5 nM.

How did the IC50 turn out when CCOc1ccc(Cl)cc1NC(=O)NCc1ccccc1Oc1ccc(C(N)=O)cc1 [Compound of Example 51] was run?
Its IC50 is 18.3 nM.

For COc1ccc(OC(F)(F)F)cc1NC(=O)NCc1ccccc1OCc1ccnc(C(N)=O)c1 [Compound of Example 5, 4-((2-((3-(2-methoxy-5-(trifluoromethoxy)phenyl)ureido)methyl)phenoxy)methyl)picolinamide], which IC50 is on record?
Its IC50 is 47 nM.

Which IC50 does the source give for CNC(=O)c1ccc(COc2ccccc2CNC(=O)Nc2cc(OC(F)(F)F)ccc2OC)cc1 [Compound of Example 13, 4-((2-((3-(2-methoxy-5-(trifluoromethoxy)phenyl)ureido)methyl)phenoxy)methyl)-N-methylbenzamide] here?
The IC50 was 96.4 nM.

With COc1ccc(OC(F)(F)F)cc1NC(=O)NCc1ccccc1OCc1cccnc1 [Compound of Example 3] as the compound, how does the IC50 read?
The IC50 was 838 nM.

How did the IC50 turn out when NC(=O)c1ccc(Oc2ccccc2CNC(=O)Nc2cc(C(F)(F)F)ccc2OC2CCNCC2)cc1 [Compound of Example 41, 4-(2-((3-(2-(piperidin-4-yloxy)-5-(trifluoromethyl)phenyl)ureido)methyl)phenoxy)benzamide] was run?
Its IC50 is 35.2 nM.

For NC(=O)c1ccc(Oc2ccccc2CNC(=O)Nc2ccc(CN3CCNCC3)c(C(F)(F)F)c2)cc1 [Compound of Example 40, 4-(2-((3-(4-((piperazin-1-ylmethyl)-5-(trifluoromethyl)phenyl)ureido)methyl)phenoxy)benzamide hydrochloride], which IC50 is on record?
The IC50 was 8.91 nM.

NC(=O)c1cccc(Oc2ccccc2CNC(=O)Nc2cccc(C(F)(F)F)c2)c1 [Compound of Example 44] was tested. Which IC50 did it give?
The IC50 was 23.7 nM.

COc1ccc(S(F)(F)(F)(F)F)cc1NC(=O)NCc1ccccc1OCc1ccncc1 [Compound of Example 1] was tested. Which IC50 did it give?
Its IC50 is 52.1 nM.

How did the IC50 turn out when CN1CCN(Cc2ccc(NC(=O)NCc3ccccc3Oc3ccc(C(N)=O)cc3)cc2C(F)(F)F)CC1 [Compound of Example 38, 4-(2-((3-(4-((4-methylpiperazin-1-yl)methyl)-3-(trifluoromethyl)phenyl)ureido)methyl)phenoxy)benzamide] was run?
The IC50 was 4.64 nM.

For COc1ccc(OC(F)(F)F)cc1NC(=O)NCc1ccccc1Oc1ccc(C(N)=O)cc1 [Compound of Example 27], which IC50 is on record?
The IC50 was 21 nM.

With COc1ccc(OC(F)(F)F)cc1NC(=O)NCc1ccccc1OCc1ccc(C(=O)NCCN(C)C)cc1 [Compound of Example 16, N-(2-(dimethylamino)ethyl)-4-((2-((3-(2-methoxy-5-(trifluoromethoxy)phenyl)ureido)methyl)phenoxy)methyl)benzamide] as the compound, how does the IC50 read?
The IC50 was 163 nM.

How did the IC50 turn out when COc1ccc(OC(F)(F)F)cc1NC(=O)NCc1ccccc1OCc1ccncc1 [Compound of Example 4] was run?
Its IC50 is 51.7 nM.

NC(=O)c1ccc(Oc2ccccc2CNC(=O)Nc2ccc(CO)c(C(F)(F)F)c2)cc1 [Compound of Example 36, 4-(2-((3-(4-(hydroxymethyl)-5-(trifluoromethyl)phenyl)ureido)methyl)phenoxy)benzamide] was tested. Which IC50 did it give?
The IC50 was 13.2 nM.

How did the IC50 turn out when CNC(=O)c1ccc(Oc2ccccc2CNC(=O)Nc2cccc(C(F)(F)F)c2)cc1 [Compound of Example 42] was run?
The IC50 was 21.5 nM.

For COc1c(CO)cc(C(F)(F)F)cc1NC(=O)NCc1ccccc1OCc1cccc(C(N)=O)c1 [Compound of Example 22], which IC50 is on record?
The IC50 was 28.5 nM.

With CNC(=O)c1ccc(Oc2ccccc2CNC(=O)Nc2cccc(C(F)(F)F)c2)nc1 [Compound of Example 48, N-methyl-6-(2-((3-(3-(trifluoromethyl)phenyl)ureido)methyl)phenoxy)nicotinamide] as the compound, how does the IC50 read?
Its IC50 is 29.1 nM.

For NC(=O)c1ccc(COc2ccccc2CNC(=O)Nc2cccc(C(F)(F)F)c2)cc1 [Compound of Example 19, 4-((2-((3-(3-(trifluoromethyl)phenyl)ureido)methyl)phenoxy)methyl)benzamide], which IC50 is on record?
Its IC50 is 37.4 nM.

For NC(=O)c1ccc(Oc2ccccc2CNC(=O)Nc2cccc(Cl)c2)cc1 [Compound of Example 49, 4-(2-((3-(3-chlorophenyl)ureido)methyl)phenoxy)benzamide], which IC50 is on record?
Its IC50 is 19.3 nM.
